# Measurements as given in patent publication US6906205B2, “Spiro and dispiro 1,2,4-trioxolane antimalarials” (Medicines for Malaria Venture MMV, priority 2002, dated 2005).
# What was measured:
# [1] = tested on: P. falciparum NF54 strain (sensitive to standard antimalarials); experiment: semiautomated microdilution assay, [3H]-hypoxanthine incorporation, NF54 strain; format: cell-based, Plasmodium falciparum; conditions: NF54 strain, 72 h incubation
# Experimental: (§1) Various OZ compounds were tested by the semiautomated microdilution assay against intraerythrocytic forms of Plasmodium falciparum derived from asynchronous stock cultures.
# (§2) Fifty percent inhibitory concentration (IC50) were estimated by Logit regression analysis.
# [2] = tested on: ANKA strain of P. berghei; experiment: single dose STI in vivo screen in infected mice; set-up: species or system Plasmodium berghei; conditions: for Activity (%) po / Activity (%) sc / Activity (%) SSVpo / Activity (%) 10 mg/kg SSV po / Activity (%) 3 mg/kg SSV po: percent reduction in parasitemia day 3 post-infection; for Activity (%) po / Survival (days) po: single 10 mg/kg po in 3% ethanol and 7% Tween 80; for Activity (%) po / Activity (%) sc / Activity (%) SSVpo: mice; for Activity (%) sc / Survival (days) sc: single 10 mg/kg sc in 3% ethanol and 7% Tween 80; for Survival (days) po / Survival (days) sc / Survival (days) SSVpo: untreated control 5.6 ± 0.3; for Activity (%) SSVpo: single po dose in standard suspending vehicle (SSV); for Survival (days) SSVpo: single po dose in SSV; for Activity (%) 10 mg/kg SSV po / Survival (days) 10 mg/kg SSV po: single 10 mg/kg po in SSV; for Activity (%) 3 mg/kg SSV po: single 3 mg/kg po in SSV
# Experimental: In the single dose STI in vivo screen, Moro SPF or NMRI mice infected with the ANKA strain of P. berghei (groups of 3-5 mice) were treated on day one post-infection with trioxolanes dissolved or suspended in 3% ethanol and 7% Tween 80. […] SSV consists of 0.5% w/v CMC, 0.5% v/v benzyl alcohol, 0.4% v/v Tween 80, and 0.9% w/v sodium chloride in water. Antimalarial activity was measured by percent reduction in parasitemia on day three post-infection and survival times compared to an untreated control group. Survival to day 30 post-infection is considered to be a cure. […] Other factors influencing antimalarial activity include the stability of carbon radicals formed by β-scission subsequent to the initial electron transfer to the peroxide bond and the influence of steric effects remote from the peroxide bond on the interactions between carbon radicals and potential drug targets.
# [3] = tested on: P. falciparum K1 strain (Thailand resistant to chloroquine); experiment: semiautomated microdilution assay, [3H]-hypoxanthine incorporation, K1 strain; format: cell-based, Plasmodium falciparum; conditions: K1 strain, 72 h incubation
# Experimental: as §1, §2
Compound,IC50 (ng/ml) NF54 [1],Activity (%) po [2],Activity (%) sc [2],Survival (days) po [2],Survival (days) sc [2],IC50 (ng/ml) K1 [3],Activity (%) SSVpo [2],Survival (days) SSVpo [2],Activity (%) 10 mg/kg SSV po [2],Survival (days) 10 mg/kg SSV po [2],Activity (%) 3 mg/kg SSV po [2],Activity (%) po ([2]; 10 mg/kg),Activity (%) sc ([2]; 10 mg/kg),Survival (days) po ([2]; 10 mg/kg),Survival (days) sc ([2]; 10 mg/kg)
Clc1ccc(C2CCC3(CC2)OOC2(O3)C3CC4CC(C3)CC2C4)cc1 (stereo not drawn) [OZ47],7.4 ng/mL,99.98%,99%,12.7 days,8.0 days,7.5 ng/mL,–,–,–,–,–,–,–,–,–
c1csc(NC[C@H]2CC[C@]3(CC2)OOC2(O3)C3CC4CC(C3)CC2C4)n1 (stereo partly drawn) [OZ252],2.2 ng/mL,98.91%,99.82%,8.3 days,9.3 days,2.3 ng/mL,99.49%,9.0 days,–,–,–,–,–,–,–
O=S(=O)(c1ccccc1)N1CCC2(CC1)OOC1(O2)C2CC3CC(C2)CC1C3 (stereo not drawn) [OZ60],1.2 ng/mL,71%,100%,6.0 days,10.3 days,1.1 ng/mL,–,–,–,–,–,–,–,–,–
CCOC(=O)c1cccc([C@H]2CC[C@]3(CC2)OOC2(O3)C3CC4CC(C3)CC2C4)c1 (stereo partly drawn) [OZ208],6.5 ng/mL,0%,10%,6.3 days,5.7 days,6.0 ng/mL,29%,6.7 days,–,–,–,–,–,–,–
O=C1CCC(=O)N1C[C@H]1CC[C@]2(CC1)OOC1(O2)C2CC3CC(C2)CC1C3 (stereo partly drawn) [OZ197],2.0 ng/mL,–,–,–,–,1.0 ng/mL,–,–,–,–,–,–,–,–,–
FC1(c2ccccc2)CCC2(CC1)OOC1(O2)C2CC3CC(C2)CC1C3 (stereo not drawn) [OZ274],5.7 ng/mL,–,–,–,–,5.1 ng/mL,–,–,11/ND %,7.0/ND days,–,–,–,–,–
S=C(Nc1ccccc1)N1CCC2(CC1)OOC1(O2)C2CC3CC(C2)CC1C3 (stereo not drawn) [OZ144],2.1 ng/mL,99.45%,99.94%,7.3 days,16.7 days,1.4 ng/mL,92%,7.3 days,–,–,–,–,–,–,–
O=C(O)CCC(=O)N1CCC2(CC1)OOC1(O2)C2CC3CC(C2)CC1C3 (stereo not drawn) [OZ58],7.2 ng/mL,39%,52%,6.0 days,6.3 days,7.1 ng/mL,–,–,–,–,–,–,–,–,–
CC(C)(N)CNC[C@H]1CC[C@]2(CC1)OOC1(O2)C2CC3CC(C2)CC1C3 (stereo partly drawn) [OZ287],0.83 ng/mL,–,–,–,–,0.49 ng/mL,–,–,95%,8.3 days,68%,–,–,–,–
NC[C@H]1CC[C@@]2(CC1)OOC1(O2)C2CC3CC(C2)CC1C3 (stereo partly drawn) [OZ269],0.61 ng/mL,98%,99.92%,10.7 days,9.0 days,0.32 ng/mL,86%,11.3 days,–,–,–,–,–,–,–
O=C(O)c1cccc([C@H]2CC[C@]3(CC2)OOC2(O3)C3CC4CC(C3)CC2C4)c1 (stereo partly drawn) [OZ198],>10/>10 ng/ml,4%,6%,5.7 days,5.7 days,>10/>10 ng/ml,6%,6.0 days,–,–,–,–,–,–,–
N=C(N)NC[C@H]1CC[C@]2(CC1)OOC1(O2)C2CC3CC(C2)CC1C3 (stereo partly drawn) [OZ237],7.1 ng/mL,5%,52%,6.0 days,6.7 days,5.7 ng/mL,9%,6.0 days,–,–,–,–,–,–,–
O=C(C[C@H]1CC[C@]2(CC1)OOC1(O2)C2CC3CC(C2)CC1C3)N1CCCCC1 (stereo partly drawn) [OZ218],3.0 ng/mL,98%,99.68%,10.0 days,9.0 days,2.0 ng/mL,99.30%,14.3 days,–,–,–,–,–,–,–
CC1(C)COC(c2ccc([C@H]3CC[C@]4(CC3)OOC3(O4)C4CC5CC(C4)CC3C5)cc2)=N1 (stereo partly drawn) [OZ180],2.8 ng/mL,–,–,–,–,3.7 ng/mL,97%,12.7 days,–,–,–,99.91%,65%,13.7 days,10.3 days
c1c[nH]c([C@H]2CC[C@]3(CC2)OOC2(O3)C3CC4CC(C3)CC2C4)n1 (stereo partly drawn) [OZ251],0.35 ng/mL,29%,99.87%,6.7 days,9.0 days,0.60 ng/mL,6%,6.0 days,–,–,–,–,–,–,–
C1CCC(NC2CCC3(CC2)OOC2(O3)C3CC4CC(C3)CC2C4)CC1 (stereo not drawn) [OZ162],0.71 ng/mL,–,–,–,–,0.50 ng/mL,–,–,–,–,–,–,–,–,–
NCC[C@H]1CC[C@]2(CC1)OOC1(O2)C2CC3CC(C2)CC1C3 (stereo partly drawn) [OZ229],0.23 ng/mL,–,–,–,–,0.24 ng/mL,–,–,–,–,–,–,–,–,–
CC(C)N(C(=O)N1CCC2(CC1)OOC1(O2)C2CC3CC(C2)CC1C3)C(C)C (stereo not drawn) [OZ194],6.6 ng/mL,87%,99.95%,8.3 days,20.3 days,–,73%,8.0 days,–,–,–,–,–,–,–
CCOC(=O)NC[C@H]1CC[C@]2(CC1)OO[C@]1(O2)C2CC3CC(C2)CC1C3 [OZ289],0.56 ng/mL,–,–,–,–,–,–,–,–,–,92%,–,–,–,–
OC1(Cc2nc3ccccc3s2)CCC2(CC1)OOC1(O2)C2CC3CC(C2)CC1C3 (stereo not drawn) [OZ276],0.94 ng/mL,–,–,–,–,–,–,–,17/ND %,7.3/ND days,–,–,–,–,–
C[C@H](N)C(=O)NC[C@H]1CC[C@]2(CC1)OO[C@]1(O2)C2CC3CC(C2)CC1C3 [OZ335],0.28 ng/mL,–,–,–,–,–,–,–,99.95%,9.2 days,97%,–,–,–,–
CC(C)(C)CC(=O)N[C@H]1CC[C@]2(CC1)OOC1(O2)C2CC3CC(C2)CC1C3 (stereo partly drawn) [OZ195],3.7 ng/mL,–,–,–,–,2.2 ng/mL,–,–,–,–,–,–,–,–,–
